Results on two compounds are retold here after ChEMBL document CHEMBL4428125, “8-Substituted 1,3-dimethyltetrahydropyrazino[2,1-f]purinediones: Water-soluble adenosine receptor antagonists and monoamine oxidase B inhibitors” (Bioorg Med Chem, 2016).

pIC50, pKi: −log10 of the molar value. Calls of active or inactive are those of the source. The calls are words filed in the database; no cut-off is given here.

The target in assay [1] is T1, Adenosine receptor A2b (Homo sapiens) (UniProt P29275).
T1 sequence (whole entry): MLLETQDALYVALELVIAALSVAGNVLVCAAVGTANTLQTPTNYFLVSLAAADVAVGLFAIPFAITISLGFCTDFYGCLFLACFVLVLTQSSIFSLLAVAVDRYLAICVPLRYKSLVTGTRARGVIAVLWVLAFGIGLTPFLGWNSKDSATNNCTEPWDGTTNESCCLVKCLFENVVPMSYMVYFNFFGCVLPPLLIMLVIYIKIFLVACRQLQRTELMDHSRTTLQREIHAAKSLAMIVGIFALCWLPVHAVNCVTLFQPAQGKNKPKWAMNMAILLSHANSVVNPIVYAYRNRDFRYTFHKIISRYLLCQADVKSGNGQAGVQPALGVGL
Description: Displacement of [3H]PSB-603 from human A2B receptor expressed in CHO cell membrane at 0.3 uM relative to control. In kind it is cell membranes. Background: Loss of bound radioactivity is the signal in a displacement assay; it reports binding, not function.

The target of assay [2] is T2, Adenosine receptor A2a (Homo sapiens, UniProt P29274). Description: Agonist activity at recombinant human A2A receptor expressed in CHO cells assessed as increase in forskolin-induced cAMP level at 10 uM preincubated for 20 mins prior to forskolin-stimulation measure after 5 mins by liquid scintillation counting method. In kind it is functional, cell-based. For orientation: Changes in cAMP serve as a functional read-out for many G protein-coupled receptors.
T2 sequence (P29274 whole entry): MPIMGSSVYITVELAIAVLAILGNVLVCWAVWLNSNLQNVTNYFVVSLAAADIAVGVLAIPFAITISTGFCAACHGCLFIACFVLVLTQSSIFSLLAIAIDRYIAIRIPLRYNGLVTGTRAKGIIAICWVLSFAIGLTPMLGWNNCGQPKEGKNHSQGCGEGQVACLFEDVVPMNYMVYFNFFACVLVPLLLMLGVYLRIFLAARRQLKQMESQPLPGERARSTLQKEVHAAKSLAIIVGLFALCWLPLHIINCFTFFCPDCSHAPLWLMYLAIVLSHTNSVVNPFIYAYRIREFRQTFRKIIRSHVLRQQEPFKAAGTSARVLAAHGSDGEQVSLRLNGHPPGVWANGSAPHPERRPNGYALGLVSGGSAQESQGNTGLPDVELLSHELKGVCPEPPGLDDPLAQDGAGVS

For another assay, the target named is T3, Adenosine receptor A3 (Homo sapiens, UniProt P0DMS8).
T3 sequence (P0DMS8 whole entry): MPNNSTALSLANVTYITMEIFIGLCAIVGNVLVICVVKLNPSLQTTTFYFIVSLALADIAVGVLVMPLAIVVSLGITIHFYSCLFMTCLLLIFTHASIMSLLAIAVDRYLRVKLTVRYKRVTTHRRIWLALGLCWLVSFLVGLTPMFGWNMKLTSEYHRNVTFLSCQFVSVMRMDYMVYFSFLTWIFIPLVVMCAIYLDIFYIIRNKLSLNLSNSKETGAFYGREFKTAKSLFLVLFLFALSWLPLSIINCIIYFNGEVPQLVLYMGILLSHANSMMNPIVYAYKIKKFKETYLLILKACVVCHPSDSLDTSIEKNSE
Description: Displacement of [3H]PSB-11 from human A3 receptor expressed in CHO cell membrane by liquid scintillation counting method relative to control. Type of assay: cell membranes.

In assay [3] the target is T4, Adenosine receptor A1 (Homo sapiens) (UniProt P30542).
T4 sequence (whole entry): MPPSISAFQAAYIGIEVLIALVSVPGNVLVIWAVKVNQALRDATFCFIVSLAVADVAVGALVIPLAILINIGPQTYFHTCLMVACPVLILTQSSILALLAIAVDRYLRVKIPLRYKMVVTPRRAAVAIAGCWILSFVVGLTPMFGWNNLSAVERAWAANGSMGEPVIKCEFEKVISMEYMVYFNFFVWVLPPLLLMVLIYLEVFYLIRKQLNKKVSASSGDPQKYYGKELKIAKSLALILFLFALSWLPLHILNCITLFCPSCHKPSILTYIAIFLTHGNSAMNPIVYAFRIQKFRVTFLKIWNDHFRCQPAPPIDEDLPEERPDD
Put plainly: Agonist activity at recombinant human A1 receptor expressed in CHO cells assessed as inhibition of forskolin-induced cAMP accumulation at 1 uM preincubated for 20 mins prior to forskolin-stimulation measure after 5 mins by liquid scintillation counting method. Type of assay: functional, cell-based.

Assay [4] addresses T4, Adenosine receptor A1 (Homo sapiens). Put plainly: Agonist activity at recombinant human A1 receptor expressed in CHO cells assessed as inhibition of forskolin-induced cAMP accumulation at 10 uM preincubated for 20 mins prior to forskolin-stimulation measure after 5 mins by liquid scintillation counting method. In kind it is functional, cell-based.
Assay [5] concerns the target T2, Adenosine receptor A2a. Description: Agonist activity at recombinant human A2A receptor expressed in CHO cells assessed as increase in forskolin-induced cAMP level at 1 uM preincubated for 20 mins prior to forskolin-stimulation measure after 5 mins by liquid scintillation counting method. In kind it is functional, cell-based.
Another assay concerns the target T5, Adenosine receptor A1 (Rattus norvegicus, UniProt P25099).
T5 sequence (P25099 whole entry): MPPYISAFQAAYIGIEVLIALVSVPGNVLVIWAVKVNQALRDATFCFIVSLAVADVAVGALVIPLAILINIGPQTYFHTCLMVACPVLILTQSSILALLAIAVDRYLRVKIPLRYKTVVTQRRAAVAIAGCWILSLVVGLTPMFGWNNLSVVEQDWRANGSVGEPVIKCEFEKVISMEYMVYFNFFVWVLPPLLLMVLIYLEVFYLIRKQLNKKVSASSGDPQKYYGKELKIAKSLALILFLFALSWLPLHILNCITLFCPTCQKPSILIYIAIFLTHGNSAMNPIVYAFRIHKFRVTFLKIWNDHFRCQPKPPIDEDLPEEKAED
Put plainly: Displacement of [3H]CCPA from A1 receptor in rat brain cortex membranes by liquid scintillation counting method. Type of assay: cell membranes.

The target of assay [6] is T6, Amine oxidase [flavin-containing] A (Homo sapiens, UniProt P21397).
T6 sequence (P21397 whole entry): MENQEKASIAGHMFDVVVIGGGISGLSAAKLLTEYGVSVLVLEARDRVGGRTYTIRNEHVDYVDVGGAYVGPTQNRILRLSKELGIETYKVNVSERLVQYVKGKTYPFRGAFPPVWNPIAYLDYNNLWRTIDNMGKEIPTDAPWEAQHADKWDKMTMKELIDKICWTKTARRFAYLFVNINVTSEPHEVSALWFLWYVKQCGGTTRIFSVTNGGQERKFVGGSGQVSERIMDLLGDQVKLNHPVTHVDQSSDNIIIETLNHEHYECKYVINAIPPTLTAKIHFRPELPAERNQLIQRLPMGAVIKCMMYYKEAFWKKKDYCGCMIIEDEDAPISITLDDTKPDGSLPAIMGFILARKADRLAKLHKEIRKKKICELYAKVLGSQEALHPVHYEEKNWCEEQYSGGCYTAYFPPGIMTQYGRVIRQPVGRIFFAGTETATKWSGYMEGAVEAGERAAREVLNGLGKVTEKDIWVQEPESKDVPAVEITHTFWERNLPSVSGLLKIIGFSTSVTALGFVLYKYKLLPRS
Put plainly: Inhibition of recombinant human MAO-A expressed in baculovirus infected BTI insect cells preincubated for 30 mins followed by addition of p-tyramine as substrate measured over 45 mins by Amplex Red MAO assay.

The target of assay [7] is T4, Adenosine receptor A1 (Homo sapiens). Description: Displacement of [3H]CCPA from human A1 receptor expressed in CHO cell membrane at 10 uM by liquid scintillation counting method. In kind it is cell membranes.
In assay [8] the target is T7, Adenosine receptor A1 (Rattus norvegicus) (UniProt P25099).
T7 sequence (whole entry): T5 sequence (P25099 whole entry)
Description: Displacement of [3H]CCPA from A1 receptor in rat brain cortex membranes at 1.5 uM by liquid scintillation counting method. Type of assay: cell membranes.

The target in assay [9] is T1, Adenosine receptor A2b (Homo sapiens). Put plainly: Displacement of [3H]PSB-603 from human A2B receptor expressed in CHO cell membrane at 1 uM relative to control. In kind it is cell membranes.
Assay [10] addresses T8, Adenosine receptor A3 (Homo sapiens) (UniProt P0DMS8).
T8 sequence (whole entry): T3 sequence (P0DMS8 whole entry)
Description: Displacement of [3H]PSB-11 from human A3 receptor expressed in CHO cell membrane at 10 uM by liquid scintillation counting method relative to control relative to control. Type of assay: cell membranes.

In the case of `Cn1c(=O)c2c(nc3n2CCN([C@@H]2CCCc4ccccc42)C3)n(C)c1=O`, the Activity in assay [1] was determined as 1%. For the same compound, the result (at Adenosine receptor A2a [2]; in [3]; in assay [4]; at Adenosine receptor A2a [5]) was inactive. Besides, the pKi on Adenosine receptor A3 is 4.85; on Adenosine receptor A1, 7.00. The pIC50 in assay [6] was below 5.00.
As for `Cn1c(=O)c2c(nc3n2CCN(c2cccc(Cl)c2)C3)n(C)c1=O`, the Activity in assay [7] was 37%; in assay [8], 37%; in assay [9], 23%; in assay [10], 20%. The pKi on Adenosine receptor A3 was below 5.00. The negative logarithm of the IC50 (pIC50) in [6] was below 5.00.

For orientation: pKi means the negative decadic logarithm of the Ki, by convention in mol/L. Lower therefore signals a high Ki. In general, pIC50 refers to −log10 of the IC50, conventionally taken in molar units.
